Experimental data published in patent publication US20230190902A1, “IDENTIFICATION OF HLA-RESTRICTED PRAME PEPTIDE EPITOPES, PRAME-SPECIFIC T CELLS SUITABLE FOR "OFF-THE-SHELF" TREATMENT OF CANCER EXPRESSING PRAME” (Children's National Medical Center, priority 2020, published 2023).
Entries after “also recorded” stand apart in the source; their conditions may differ.

Key:
CD8+ T-cells [1] = assay: Intracellular IFN-γ and TNF-α cytokine staining, CD8+ T-cells; type: cell-based, human; details: 6 h stimulation, 200 ng/peptide/well
Experimental: (§1) T-cells were stimulated for 6 h with PRAME PepMix or individual PRAME peptides (200 ng/peptide/well) in the presence of anti-CD28 and CD49d antibodies (RD Biosciences, San Jose, Calif., USA) and Brefeldin A (Golgiplug, BD Biosciences). Controls (unstimulated T-cells, actin, SEE) were included in each experiment. Intracellular IFN-γ (BioLegend, San Diego, Calif.) and TNF-α (Miltenyi Biotec, Bergisch Gladbach, Germany) staining were performed on fixed and permeabilized cells (Cytofix/Cytoperm, BD Biosciences). Data was acquired with a CytoFLEX cytometer (Beckman Coulter, Brea, Calif.), and analyzed using FlowJo Flow Cytometry software (FlowJo LLC, Ashland, Oreg.).
(§2) HLA restriction of these peptides was evaluated with intracellular IFN-γ and TNF-α cytokine staining.

CD4+ T-cells = assay: Intracellular IFN-γ and TNF-α cytokine staining, CD4+ T-cells; type: cell-based, human; details: 6 h stimulation, 200 ng/peptide/well
Experimental: as §1, §2

PRAME-specific T-cells = assay: Epitope mapping by IFN-γ ELISpot (peptide mini-pools and single 15-mer peptides); type: cell-based, human; details: 10 μg/well
Experimental: (§3) PRAME Peptides. The PRAME peptide library consisting of 125 15-mer peptides overlapping by 11 amino acids and spanning the entire sequence of PRAME protein was designed to identify HLA class 1 and HLA class H-restricted epitopes (A&A Labs, San Diego, Calif.) 23 peptide pools comprising 10-12 peptides were prepared so that each 15-mer peptide was included in only two pools (FIGS. 7A and 7B). To determine minimal PRAME epitopes, additional 9-mer peptides overlapping by 8 amino acids spanning immunogenic 15-mer peptides were obtained from A&A Labs, San Diego, Calif. All peptides were reconstituted at 10 μg/μl in DMSO and stored at −80°C. until further use.
Epitope mapping. T-cell response to pools of peptide libraries and individual PRAME peptides were determined. by IFN-γ ELISpot assay. ELISpot assay was performed as previously described. 1×10^5 T-cells/well were plated alone, with actin (negative control), SEB (positive control), each peptide pool (1μg/well) and individual peptide (10 μg/well). IFN-γ spot-forming cells (SFC) were enumerated by Zellnet Consulting (Fort Lee, N.J.).
Responses that were at least 10 SFC/1×10^5 T-cells or greater than two-fold the background level of nonstimulated T-cells or T-cells stimulated with actin were considered positive responses.
In order to map the class 1-restricted responses, a mapping grid consisting of 23 mini-pools comprising 125 individual 15-mer peptides spanning the entire PRAME protein sequence to identify PRAME epitopes eliciting a response by ex-vivo expanded T-cells was used (FIG. 7A). IFN-γ production by PRAME- sensitized T-cells in response to stimulation with mini-pools was measured by ELISpot assay.
T-cell responses to single 15-mer peptides selected from the grid and their neighboring peptides were determined by IFN-γ ELISpot assay (FIG. 3B).

HLA-B*35 = biological target: T1, HLA-B*35 (Homo sapiens, UniProt P01889, A329T/A93T/A95T/C349S/D201E/D98Y/E176V/E187L/E204Q/E69T/I218V/K202T/L119I/Q94N/R155S/R180L/S121R/S35A/S48A/T118I/V127L/V306I/V36M/Y140F/Y91F); assay: IFN-γ ELISpot with anti-HLA-B*35 antibody (HLA restriction); type: cell-based; details: versus T-cell product alone (FIG. 3G)
T1 construct: PRAME-specific T-cells were expanded from PBMCs obtained from twelve healthy donors; endogenous in cells; host or cells: ex vivo expanded PRAME-specific T-cell product from healthy donor PBMCs
Experimental: (§4) Minimal epitopes recognized by HLA I-restricted cell lines were determined by IFN-γ ELISpot assay. To confirm the restricted HLA allele, anti-human HLA class 1 B35 antigen monoclonal antibody was used in the ELISpot plate (MyBioSource, San Diego, Calif.).
To confirm the HLA-B*35 restriction of FPEPEAAQP (SEQ ID NO: 6) further testing was performed using an anti-[…] antibody.

CD8+ T-cells [2] = assay: Minimal 9-mer epitope determination by IFN-γ ELISpot; type: cell-based, human; details: 9-mers overlapping by 8 amino acids
Experimental: as §3, §4
The minimal 9-mer epitopes overlapping by 8 amino acids spanning the 15-mer peptides were determined by IFN-γ ELISpot.

Sequence | IFN-γ and TNF-α release by CD8+ T-cells (CD8+ T-cells [1]) | IFN-γ and TNF-α release by CD4+ T-cells (CD4+ T-cells) | T-cell response to single 15-mer PRAME peptide, IFN-γ ELISpot (PRAME-specific T-cells; T-cell product of FIG. 3B/3C) | T-cell response to single 15-mer PRAME peptide, IFN-γ ELISpot (PRAME-specific T-cells; T-cell product of FIG. 4B/4C) | specificity of T-cell product with anti-HLA-B*35 antibody (HLA-B*35) | specificity of T-cell product with anti-HLA-B*35 antibody (HLA-B*35; listed as FPEPEAAQPM) | IFN-γ secretion upon stimulation with 9-mer (minimal epitope) (CD8+ T-cells [2])
ASIYSFPEPEAAQPM (ASLYSFPEPEAAQPM) [compound 36] | released IFN-γ and TNF-α; also recorded: HLA-I-restricted | no specificity | immunogenic |  |  |  | 
EEQYIAQFTSQFLSL [compound 71] | no specificity | released IFN-γ and TNF-α; also recorded: release of IFN-γ and TNF-α |  | recognition |  |  | 
EKVKRKKNVLRLCCK [compound 50] | no specificity | released IFN-γ and TNF-α; also recorded: release of IFN-γ and TNF-α |  | recognition |  |  | 
EQPFIPVEVINDLFL [compound 43] | released IFN-γ and TNF-α; also recorded: HLA-I-restricted | no specificity | immunogenic |  |  |  | 
FPEPEAAQP |  |  |  |  | decreased specificity | confirms HLA restriction | secreted IFN-γ; also recorded: minimal 9-mer peptides
IPVEVINDLFLKEGA [compound 44] | released IFN-γ and TNF-α; also recorded: HLA-I-restricted | no specificity | immunogenic |  |  |  | 
RLVELAGQSLLKDEA [compound 7] | activated | activated |  |  |  |  | 
SFPEPEAAQPMTKKR [compound 37] | released IFN-γ and TNF-α; also recorded: HLA-I-restricted | no specificity | immunogenic |  |  |  | 
SPEKEEQYIAQFTSQ [compound 70] |  |  |  | recognition |  |  | 
VEVLVDLFL |  |  |  |  |  |  | secreted IFN-γ; also recorded: minimal 9-mer peptides
